The subject of one data set is Mycolicibacterium aurum. In words: Antimycobacterial activity against Mycobacterium aurum DSM 43999 after 72 hr by resazurin dye based microdilution method. In kind it is functional. The note with it: DSM 43999, 72 h.
The test system of data set [1] is Mycolicibacterium smegmatis. The data set can be described thus: Antimycobacterial activity against Mycobacterium smegmatis DSM 43465 after 120 hr by resazurin dye based microdilution method. Format: functional. Particulars: DSM 43465, 120 h.
Data set [2] deals with Mycobacterium tuberculosis. The data set can be described thus: Antimycobacterial activity against Mycobacterium tuberculosis H37Ra ITM-M006710 after 48 hr by resazurin dye based microdilution method. Format: functional. Particulars: H37Ra ITM-M006710, 48 h. (Resazurin is reduced to fluorescent resorufin, in cell work by metabolically active cells.)
Data set [3] has as its system Mycobacterium kansasii. In words: Antimycobacterial activity against Mycobacterium kansasii 235/80 after 21 days. In kind it is functional. Particulars: 235/80, 504 h.
The test system of data set [4] is Mycobacterium kansasii. The data set can be described thus: Antimycobacterial activity against Mycobacterium kansasii 6509/96 after 21 days. In kind it is functional. Particulars: 6509/96, 504 h.
The subject of data set [5] is Mycobacterium avium. In words: Antimycobacterial activity against Mycobacterium avium 330/88 after 21 days. In kind it is functional. Particulars: 330/88, 504 h.
Data set [6] has as its system Mycobacterium kansasii. The data set can be described thus: Antimycobacterial activity against Mycobacterium kansasii 235/80 after 7 days. Format: functional. Particulars: 235/80, 168 h.
Data set [7] concerns Mycobacterium kansasii. In words: Antimycobacterial activity against Mycobacterium kansasii 6509/96 after 7 days. The note with it: 6509/96, 168 h. Format: functional.
Data set [8] relates to Mycobacterium tuberculosis H37Rv. The data set can be described thus: Inhibition of recombinant Mycobacterium tuberculosis H37Rv ICL1 expressed in Escherichia coli BL21 (DE3) cells at 10 uM using (+)-potassium Ds-threo-isocitrate as substrate by glyoxylate phenyl hydrazone formation assay relative to control.
Data set [9] concerns HepG2. The data set can be described thus: Cytostatic activity against human HepG2 cells preincubated for overnight in serum free medium followed by compound wash out and further incubated for 72 hrs in presence of serum by MTT assay. In kind it is ADME, cell-based. (Tetrazolium assays rely on reduction of a dye to a coloured formazan, in cell work by metabolically active cells.)

The subject of data set [10] is Mycobacterium avium. In words: Antimycobacterial activity against Mycobacterium avium 330/88 after 14 days. In kind it is functional. Particulars: 330/88, 336 h.
Data set [11] concerns Mycobacterium tuberculosis. In kind it is functional. The note with it: H37Rv 331/88, 336 h.
Data set [12] deals with HepG2. In words: Cytotoxicity against human HepG2 cells assessed as reduction in cell viability after overnight incubation by MTT assay. Format: cell-based.
The subject of data set [13] is Mycobacterium kansasii. The data set can be described thus: Antimycobacterial activity against Mycobacterium kansasii 6509/96 after 14 days. In kind it is functional. Particulars: 6509/96, 336 h.
A further data set can be described thus: in vitro. Particulars: human, HepG2 cells.
In data set [14] the test system is Mycobacterium kansasii. The data set can be described thus: Antimycobacterial activity against Mycobacterium kansasii 235/80 after 14 days. Format: functional. The note with it: 235/80, 336 h.
In data set [15] the test system is Mycobacterium tuberculosis. In kind it is functional. Particulars: H37Rv 331/88, 504 h.

Molecules are shown by their SMILES. Values after ≈ are worked out from the molar mass of the structure shown.

Description for in vitro: Selectivity index, ratio of IC50 for human HepG2 cells to MIC for antimycobacterial activity against Mycobacterium tuberculosis H37Rv

As usually defined, the MIC is the lowest concentration found to suppress growth. The low end stands for a more susceptible organism, the high end for a less susceptible organism. As for `CO[C@H]1/C=C/O[C@@]2(C)Oc3c(C)c(O)c4c(O)c(c(/C=N/N5CCN(C)CC5)c(O)c4c3C2=O)NC(=O)/C(C)=C\C=C\[C@H](C)[C@H](O)[C@@H](C)[C@@H](O)[C@@H](C)[C@H](OC(C)=O)[C@@H]1C` [RIFAMPIN], the minimal inhibitory concentration (MIC) against Mycolicibacterium aurum was 0.47 µM; in data set [1], 12.5 to 25 µg/mL; in data set [2], 0.0005 to 0.009 µM.

Usually inhibition stands for how much of the control response was suppressed. The IC50 is the midpoint of a concentration-inhibition curve. `O=C(Nc1ccccc1)Oc1ccc(Cl)cc1`: the MIC was 500 µM (≈ 124 µg/mL) against Mycobacterium kansasii [3]; 500 µM (≈ 124 µg/mL) in the data set on Mycobacterium kansasii [4]; 1000 µM (≈ 248 µg/mL) against Mycobacterium avium [5]; 15.6 µg/mL with Mycolicibacterium aurum; 125 µM (≈ 31 µg/mL) against Mycobacterium kansasii [6]; 125 µM (≈ 31 µg/mL) with Mycobacterium kansasii [7]. For the same compound, the MIC in the data set with Mycobacterium avium [10] is 500 µM (≈ 124 µg/mL); in data set [11], 250 µM (≈ 61.9 µg/mL); against Mycobacterium kansasii [13], 250 µM (≈ 61.9 µg/mL); in [1], 15.6 µg/mL; in data set [2], 7.81 µg/mL; against Mycobacterium kansasii [14], 250 µM (≈ 61.9 µg/mL). Inhibition of growth in [15] (MIC) required 500 µM (≈ 124 µg/mL). Also, the inhibition in data set [8] came to 14%. Also, the IC50 in the data set with HepG2 [9] and in the data set with HepG2 [12] was over 125 µM each time. Moreover, the selectivity ratio in “in vitro” is over 0.3.

Turning to `O=C(NC12CC3CC(CC(C3)C1)C2)Oc1ccccc1C(=O)Nc1ccccc1`, the MIC is 125 µM (≈ 48.8 µg/mL) with Mycobacterium kansasii [3]; 250 µM (≈ 97.6 µg/mL) against Mycobacterium kansasii [4]; 125 µM (≈ 48.8 µg/mL) against Mycobacterium avium [5]; at least 250 µg/mL against Mycolicibacterium aurum; 125 µM (≈ 48.8 µg/mL) against Mycobacterium kansasii [6]; 125 µM (≈ 48.8 µg/mL) with Mycobacterium kansasii [7]. Also, the MIC against Mycobacterium avium [10] came to 125 µM (≈ 48.8 µg/mL); in [11], 125 µM (≈ 48.8 µg/mL); against Mycobacterium kansasii [13] it was 250 µM (≈ 97.6 µg/mL); in data set [1] it was 250 µg/mL; in data set [2] it was 250 µg/mL; with Mycobacterium kansasii [14] it was 125 µM (≈ 48.8 µg/mL). Further, it took 125 µM (≈ 48.8 µg/mL) to inhibit growth in data set [15] (MIC). Besides, the inhibition in [8] stood at 9%. For the same compound, the values for the IC50 in the data set on HepG2 [9] and in the data set with HepG2 [12] were 233 µM and over 250 µM, respectively. Also, the selectivity ratio in “in vitro” was over 2.

As to `O=C(NCCc1ccccc1)Oc1ccc(Cl)cc1`, the minimal inhibitory concentration (MIC) in the data set on Mycobacterium kansasii [3] turned out to be 500 µM (≈ 138 µg/mL); in the data set with Mycobacterium kansasii [4], 500 µM (≈ 138 µg/mL); in the data set on Mycobacterium avium [5], 500 µM (≈ 138 µg/mL); in the data set with Mycolicibacterium aurum it was 125 µg/mL; in the data set on Mycobacterium kansasii [6], 125 µM (≈ 34.5 µg/mL); with Mycobacterium kansasii [7] it was 125 µM (≈ 34.5 µg/mL). Moreover, the minimum inhibitory concentration (MIC) came to 250 µM (≈ 68.9 µg/mL) against Mycobacterium avium [10]; 250 µM (≈ 68.9 µg/mL) in data set [11]; 250 µM (≈ 68.9 µg/mL) against Mycobacterium kansasii [13]; 62.5 µg/mL in [1]; 31.2 µg/mL in data set [2]; 250 µM (≈ 68.9 µg/mL) in the data set on Mycobacterium kansasii [14]. In [15], the MIC came to 250 µM (≈ 68.9 µg/mL). For the same compound, the inhibition in [8] was 12%. The IC50 was over 250 µM in the data set with HepG2 [9] and over 125 µM with HepG2 [12]. In “in vitro”, the selectivity ratio was over 0.5.

In the case of `O=C(NCCc1ccccc1)Oc1ccccc1C(=O)Nc1ccccc1`, the MIC in the data set with Mycobacterium kansasii [3] was 250 µM (≈ 90.1 µg/mL); with Mycobacterium kansasii [4] it was 250 µM (≈ 90.1 µg/mL); with Mycobacterium avium [5], 125 µM (≈ 45.1 µg/mL); in the data set with Mycolicibacterium aurum, 31.2 µg/mL; with Mycobacterium kansasii [6], 125 µM (≈ 45.1 µg/mL); in the data set with Mycobacterium kansasii [7] it was 125 µM (≈ 45.1 µg/mL). Further, the minimal inhibitory concentration (MIC) with Mycobacterium avium [10] turned out to be 125 µM (≈ 45.1 µg/mL); in data set [11], 125 µM (≈ 45.1 µg/mL); with Mycobacterium kansasii [13] it was 250 µM (≈ 90.1 µg/mL); in data set [1] it was 31.2 µg/mL; in data set [2], 15.6 µg/mL; in the data set on Mycobacterium kansasii [14] it was 250 µM (≈ 90.1 µg/mL). In [15], this compound yielded an MIC of 125 µM (≈ 45.1 µg/mL). The inhibition in [8] was 6%. Moreover, the results for the half-inhibitory concentration (IC50) in the data set on HepG2 [9] and with HepG2 [12] were 55.6 µM and over 125 µM, respectively. Besides, the selectivity ratio in the data set “in vitro” is over 1.

With `Nc1ccc(C(=O)O)c(O)c1` [AMINOSALICYLIC ACID], the MIC in the data set on Mycobacterium kansasii [3] is over 1000 µM; against Mycobacterium kansasii [4], 500 µM (≈ 76.6 µg/mL); in the data set with Mycobacterium avium [5], 125 µM (≈ 19.1 µg/mL); against Mycobacterium kansasii [6], 125 µM (≈ 19.1 µg/mL); against Mycobacterium kansasii [7], 32 µM (≈ 4.9 µg/mL); against Mycobacterium avium [10], 32 µM (≈ 4.9 µg/mL). For the same compound, the MIC in [11] is 62.5 µM (≈ 9.57 µg/mL); in the data set on Mycobacterium kansasii [13], 125 µM (≈ 19.1 µg/mL); in the data set with Mycobacterium kansasii [14] it was 1000 µM (≈ 153 µg/mL); in [15], 62.5 µM (≈ 9.57 µg/mL). In data set [8], the inhibition amounted to 0%. Besides, the selectivity ratio in the data set “in vitro” is 35.8.

As to `O=C(O)CC[N+](=O)[O-]`, the inhibition in data set [8] stood at 25%.

Regarding `CC[C@@H](CO)NCCN[C@@H](CC)CO` [ETHAMBUTOL], the values for the minimal inhibitory concentration (MIC) (with Mycolicibacterium aurum; in [1]; in data set [2]) were 0.9 µM, 1.8 µM and 1.8 µM, respectively.

(Values after ChEMBL document CHEMBL4406824, “Phenolic N-monosubstituted carbamates: Antitubercular and toxicity evaluation of multi-targeting compounds” (Eur J Med Chem, 2019).)
